US9340590B2 (priority 2011, dated 2016)
Where two headings read alike, the source gives them in different places. Positions of bridges follow the written chain, without caps; N, C: chain ends. Non-standard residues stand in square brackets, D forms with d. Residues, ends and D or L forms follow the SMILES beside them. 1Nal = N[C@@H](Cc1cccc2ccccc12)C(=O)O

Tests used:
Assay in all cases: cell-based
hNav1.7 = hNav1.7 (Homo sapiens, UniProt Q15858); assay type: cell-based
hNav1.3 = hNav1.3 (Homo sapiens, UniProt Q9NY46); details: IonWorks Quattro, read-out: IWQ Use Nav1.3
Chain of hNav1.3 (Q9NY46 whole entry, looked up): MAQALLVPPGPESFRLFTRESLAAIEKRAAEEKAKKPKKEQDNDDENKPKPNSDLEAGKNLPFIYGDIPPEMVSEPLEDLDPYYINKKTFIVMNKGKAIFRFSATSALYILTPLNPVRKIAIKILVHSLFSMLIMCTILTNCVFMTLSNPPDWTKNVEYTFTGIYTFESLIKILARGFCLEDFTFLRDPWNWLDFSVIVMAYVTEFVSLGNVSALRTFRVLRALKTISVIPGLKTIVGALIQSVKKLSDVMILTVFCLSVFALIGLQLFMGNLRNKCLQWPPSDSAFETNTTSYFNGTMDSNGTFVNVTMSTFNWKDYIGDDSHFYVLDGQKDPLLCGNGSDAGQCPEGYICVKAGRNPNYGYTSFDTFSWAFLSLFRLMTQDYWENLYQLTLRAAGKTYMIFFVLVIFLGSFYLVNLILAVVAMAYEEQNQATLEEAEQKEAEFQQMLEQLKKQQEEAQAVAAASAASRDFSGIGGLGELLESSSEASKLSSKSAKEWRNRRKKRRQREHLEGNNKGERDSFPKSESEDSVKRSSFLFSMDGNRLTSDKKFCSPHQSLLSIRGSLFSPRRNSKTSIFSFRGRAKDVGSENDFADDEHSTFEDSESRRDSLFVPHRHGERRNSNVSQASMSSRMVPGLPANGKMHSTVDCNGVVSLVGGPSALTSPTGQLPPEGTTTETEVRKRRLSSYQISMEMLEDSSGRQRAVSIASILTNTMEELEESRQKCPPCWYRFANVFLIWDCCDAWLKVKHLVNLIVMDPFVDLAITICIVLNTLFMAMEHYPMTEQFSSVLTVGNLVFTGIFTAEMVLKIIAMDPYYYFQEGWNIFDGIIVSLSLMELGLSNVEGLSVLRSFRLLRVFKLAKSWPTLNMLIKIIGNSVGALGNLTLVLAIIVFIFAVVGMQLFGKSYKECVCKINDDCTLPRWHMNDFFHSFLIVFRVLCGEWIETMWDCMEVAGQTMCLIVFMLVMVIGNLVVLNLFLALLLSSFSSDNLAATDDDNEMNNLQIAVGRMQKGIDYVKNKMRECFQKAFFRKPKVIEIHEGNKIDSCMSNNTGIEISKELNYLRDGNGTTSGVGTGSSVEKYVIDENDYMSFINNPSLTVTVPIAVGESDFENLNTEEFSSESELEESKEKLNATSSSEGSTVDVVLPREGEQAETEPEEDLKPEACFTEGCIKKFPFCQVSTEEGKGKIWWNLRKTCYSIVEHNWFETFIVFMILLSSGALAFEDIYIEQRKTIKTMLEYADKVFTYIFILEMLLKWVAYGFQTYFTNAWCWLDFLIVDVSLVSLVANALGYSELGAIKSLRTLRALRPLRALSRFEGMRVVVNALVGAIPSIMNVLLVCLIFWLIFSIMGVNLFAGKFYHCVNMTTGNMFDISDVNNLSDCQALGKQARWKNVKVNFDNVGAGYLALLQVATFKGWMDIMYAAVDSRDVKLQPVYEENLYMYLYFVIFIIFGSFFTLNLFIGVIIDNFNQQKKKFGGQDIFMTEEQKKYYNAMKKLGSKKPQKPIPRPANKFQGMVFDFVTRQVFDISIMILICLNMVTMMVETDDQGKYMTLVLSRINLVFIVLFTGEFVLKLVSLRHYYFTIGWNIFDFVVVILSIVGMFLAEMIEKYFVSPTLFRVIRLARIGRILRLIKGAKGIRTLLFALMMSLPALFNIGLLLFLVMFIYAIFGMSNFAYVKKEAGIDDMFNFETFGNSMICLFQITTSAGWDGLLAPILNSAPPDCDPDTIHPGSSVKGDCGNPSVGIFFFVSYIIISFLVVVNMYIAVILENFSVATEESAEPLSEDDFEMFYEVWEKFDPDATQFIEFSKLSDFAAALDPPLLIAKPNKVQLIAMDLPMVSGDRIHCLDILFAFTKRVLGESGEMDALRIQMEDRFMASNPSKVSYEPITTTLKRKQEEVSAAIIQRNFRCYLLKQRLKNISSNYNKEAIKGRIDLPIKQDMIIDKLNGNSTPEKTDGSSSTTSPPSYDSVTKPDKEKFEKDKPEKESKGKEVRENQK

hNav1.5 = hNav1.5 (Homo sapiens, UniProt Q14524); details: IonWorks Quattro, read-out: IWQ Use Nav1.5
[1] = IonWorks Quattro, Use, read-out: IWQ Use Nav1.7

Chain of hNav1.7 (Q15858 whole entry, looked up): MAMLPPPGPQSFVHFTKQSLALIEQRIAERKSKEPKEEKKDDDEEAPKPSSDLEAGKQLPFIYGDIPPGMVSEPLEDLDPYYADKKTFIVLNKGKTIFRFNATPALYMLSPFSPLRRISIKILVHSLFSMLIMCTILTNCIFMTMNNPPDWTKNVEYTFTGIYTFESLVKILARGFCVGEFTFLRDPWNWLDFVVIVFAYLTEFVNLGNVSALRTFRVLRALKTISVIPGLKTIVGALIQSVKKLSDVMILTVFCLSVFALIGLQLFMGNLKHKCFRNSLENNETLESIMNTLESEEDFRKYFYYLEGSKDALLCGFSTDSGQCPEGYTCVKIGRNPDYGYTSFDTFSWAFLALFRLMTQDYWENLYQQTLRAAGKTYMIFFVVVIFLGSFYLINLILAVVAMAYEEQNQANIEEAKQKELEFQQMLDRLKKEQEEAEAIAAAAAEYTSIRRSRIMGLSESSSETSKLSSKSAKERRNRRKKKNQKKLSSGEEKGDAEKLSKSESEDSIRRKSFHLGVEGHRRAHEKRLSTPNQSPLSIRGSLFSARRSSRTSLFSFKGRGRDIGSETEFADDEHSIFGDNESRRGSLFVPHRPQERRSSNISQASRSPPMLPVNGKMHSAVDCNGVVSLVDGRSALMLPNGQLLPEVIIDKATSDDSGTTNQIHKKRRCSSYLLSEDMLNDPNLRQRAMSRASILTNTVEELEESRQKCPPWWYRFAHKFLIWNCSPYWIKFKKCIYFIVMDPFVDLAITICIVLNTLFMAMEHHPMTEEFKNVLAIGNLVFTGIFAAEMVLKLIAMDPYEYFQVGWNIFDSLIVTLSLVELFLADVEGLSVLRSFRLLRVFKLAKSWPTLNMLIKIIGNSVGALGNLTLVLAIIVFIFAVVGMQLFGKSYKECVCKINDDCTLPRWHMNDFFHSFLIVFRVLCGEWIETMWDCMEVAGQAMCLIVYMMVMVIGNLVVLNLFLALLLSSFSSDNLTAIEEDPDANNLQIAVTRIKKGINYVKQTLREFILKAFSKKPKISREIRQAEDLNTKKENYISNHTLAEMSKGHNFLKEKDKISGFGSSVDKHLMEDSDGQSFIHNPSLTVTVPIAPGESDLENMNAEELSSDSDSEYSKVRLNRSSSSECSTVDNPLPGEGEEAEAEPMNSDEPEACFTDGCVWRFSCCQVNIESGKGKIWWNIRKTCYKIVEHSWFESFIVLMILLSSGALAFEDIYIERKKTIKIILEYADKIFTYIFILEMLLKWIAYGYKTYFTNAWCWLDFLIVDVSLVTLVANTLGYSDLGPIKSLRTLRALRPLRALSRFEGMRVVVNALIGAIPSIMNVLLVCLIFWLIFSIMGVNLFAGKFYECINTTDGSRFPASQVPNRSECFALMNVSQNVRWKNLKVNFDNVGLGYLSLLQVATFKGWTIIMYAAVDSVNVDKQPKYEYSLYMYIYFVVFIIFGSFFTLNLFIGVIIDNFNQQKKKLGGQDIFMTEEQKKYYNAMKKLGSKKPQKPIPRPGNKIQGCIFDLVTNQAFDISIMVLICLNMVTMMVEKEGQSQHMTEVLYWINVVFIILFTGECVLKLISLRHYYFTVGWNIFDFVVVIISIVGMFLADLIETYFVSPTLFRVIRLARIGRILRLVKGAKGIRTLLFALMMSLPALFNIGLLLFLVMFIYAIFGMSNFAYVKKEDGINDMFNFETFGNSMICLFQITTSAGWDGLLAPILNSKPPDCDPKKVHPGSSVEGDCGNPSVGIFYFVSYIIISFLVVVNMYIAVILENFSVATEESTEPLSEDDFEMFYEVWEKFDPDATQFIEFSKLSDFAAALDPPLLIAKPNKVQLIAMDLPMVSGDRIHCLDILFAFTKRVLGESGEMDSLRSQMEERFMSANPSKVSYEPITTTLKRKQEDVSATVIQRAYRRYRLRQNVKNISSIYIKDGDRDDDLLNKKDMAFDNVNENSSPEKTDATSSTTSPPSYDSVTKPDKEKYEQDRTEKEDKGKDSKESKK

SMILES: CC[C@H](C)[C@@H]1NC(=O)[C@@H]2CSSC[C@@H]3NC(=O)[C@H](C(C)C)NC(=O)[C@H](CC(C)C)NC(=O)[C@H](CC(N)=O)NC(=O)[C@@H]4CCCN4C(=O)[C@H](CCCNC(=N)N)NC(=O)[C@H](CSSC[C@H](NC(=O)[C@@H](N)CC(=O)O)C(=O)N[C@@H](CC(C)C)C(=O)NCC(=O)N[C@@H](Cc4ccccc4)C(=O)N[C@@H](CCSC)C(=O)N[C@@H](CCCNC(=N)N)C(=O)N[C@@H](CCCCN)C(=O)N2)NC(=O)[C@H](CSSC[C@@H](C(=O)N[C@@H](CCCCN)C(=O)N[C@@H](Cc2ccc(O)cc2)C(=O)N[C@H](C(=O)N[C@@H](Cc2ccccc2)C(N)=O)C(C)C)NC(=O)[C@H](Cc2c[nH]c4ccccc24)NC(=O)[C@H](CCCCN)NC(=O)[C@H](Cc2c[nH]cn2)NC(=O)[C@H]([C@@H](C)O)NC(=O)[C@H](CCCNC(=N)N)NC(=O)[C@H](CO)NC3=O)NC(=O)[C@H](CCC(N)=O)NC(=O)[C@H](CC(=O)O)NC(=O)[C@H](CC(N)=O)NC(=O)[C@H](CC(=O)O)NC(=O)[C@@H]2CCCN2C1=O [compound 92] (H-DCLGFMRKCIPDNDQCCRPNLVCSRTHKWCKYVF-NH2; disulfide 2-17, 9-23, 16-30)
- IC50 (hNav1.7; [1]): 0.13 µM
- IC50 (hNav1.3; Use): 0.12 µM
- IC50 (hNav1.5; Use): 7.6 µM

SMILES: CC[C@H](C)[C@@H]1NC(=O)[C@@H]2CSSC[C@@H]3NC(=O)[C@H](C(C)C)NC(=O)[C@H](CC(C)C)NC(=O)[C@H](CC(N)=O)NC(=O)[C@@H]4CCCN4C(=O)[C@H](CCCNC(=N)N)NC(=O)[C@H](CSSC[C@H](NC(=O)[C@@H](N)CC(=O)O)C(=O)N[C@@H](CC(C)C)C(=O)NCC(=O)N[C@@H](Cc4ccccc4)C(=O)N[C@@H](CCSC)C(=O)N[C@@H](CCCNC(=N)N)C(=O)N[C@@H](CCCCN)C(=O)N2)NC(=O)[C@H](CSSC[C@@H](C(=O)N[C@@H](CCCCN)C(=O)N[C@@H](Cc2ccc(O)cc2)C(=O)N[C@H](C(=O)N[C@@H](Cc2ccccc2)C(N)=O)C(C)C)NC(=O)[C@H](Cc2c[nH]c4ccccc24)NC(=O)[C@H](CCCCN)NC(=O)[C@H]([C@@H](C)O)NC(=O)[C@H](CCCCN)NC(=O)[C@H](CCCNC(=N)N)NC(=O)[C@H](CO)NC3=O)NC(=O)[C@H](CCCCN)NC(=O)[C@H](CC(=O)O)NC(=O)[C@H](CC(N)=O)NC(=O)[C@H](CC(=O)O)NC(=O)[C@@H]2CCCN2C1=O [compound 94] (H-DCLGFMRKCIPDNDKCCRPNLVCSRKTKWCKYVF-NH2; disulfide 2-17, 9-23, 16-30)
- IC50 (hNav1.7; Table 22, IonWorks Quattro, use, […], read-out: IWQ Use Nav1.7): 0.1 µM
- IC50 (hNav1.3; Table 22, use, […]): 0.05 µM
- IC50 (hNav1.5; Table 22, use, […]): 9.29 µM

SMILES: CC[C@H](C)[C@@H]1NC(=O)[C@@H]2CSSC[C@@H]3NC(=O)[C@H](C(C)C)NC(=O)[C@H](CC(C)C)NC(=O)[C@H](CC(N)=O)NC(=O)[C@@H]4CCCN4C(=O)[C@H](CCCNC(=N)N)NC(=O)[C@H](CSSC[C@H](NC(=O)[C@@H](N)CC(=O)O)C(=O)N[C@@H](CC(C)C)C(=O)NCC(=O)N[C@@H](Cc4ccccc4)C(=O)N[C@@H](CCSC)C(=O)N[C@@H](CCCNC(=N)N)C(=O)N[C@@H](CCCCN)C(=O)N2)NC(=O)[C@H](CSSC[C@@H](C(=O)N[C@@H](CCCCN)C(=O)N[C@@H](Cc2ccc(O)cc2)C(=O)N[C@@H](CCC(N)=O)C(=O)N[C@@H](Cc2ccccc2)C(N)=O)NC(=O)[C@H](Cc2c[nH]c4ccccc24)NC(=O)[C@H](CCCCN)NC(=O)[C@H](Cc2c[nH]cn2)NC(=O)[C@H]([C@@H](C)O)NC(=O)[C@H](CCCNC(=N)N)NC(=O)[C@H](CO)NC3=O)NC(=O)[C@H](CCCCN)NC(=O)[C@H](CC(=O)O)NC(=O)[C@H](CC(N)=O)NC(=O)[C@H](CC(=O)O)NC(=O)[C@@H]2CCCN2C1=O [compound 95] (H-DCLGFMRKCIPDNDKCCRPNLVCSRTHKWCKYQF-NH2; disulfide 2-17, 9-23, 16-30)
- IC50 (hNav1.7; Table 26, IonWorks Quattro, use, […], read-out: IWQ Use Nav1.7): 0.12 µM
- IC50 (hNav1.3; Table 26, use, […]): 0.11 µM
- IC50 (hNav1.5; Table 26, use, […]): 10.6 µM

SMILES: CC[C@H](C)[C@H](NC(=O)[C@@H](NC(=O)[C@H](Cc1ccc(O)cc1)NC(=O)[C@H](CCCCN)NC(=O)[C@@H]1CSSC[C@@H]2NC(=O)[C@H](CCCCN)NC(=O)[C@H](CC(=O)O)NC(=O)[C@H](CC(N)=O)NC(=O)[C@H](CC(=O)O)NC(=O)[C@@H]3CCCN3C(=O)[C@H]([C@@H](C)CC)NC(=O)[C@@H]3CSSC[C@H](NC(=O)[C@H](C(C)C)NC(=O)[C@H](CC(C)C)NC(=O)[C@H](CC(N)=O)NC(=O)[C@@H]4CCCN4C(=O)[C@H](CCCNC(=N)N)NC(=O)[C@H](CSSC[C@H](NC(=O)[C@@H](N)CC(=O)O)C(=O)N[C@@H](CC(C)C)C(=O)NCC(=O)N[C@@H](Cc4ccccc4)C(=O)N[C@@H](CCSC)C(=O)N[C@@H](CCCNC(=N)N)C(=O)N[C@@H](CCCCN)C(=O)N3)NC2=O)C(=O)N[C@@H](CO)C(=O)N[C@@H](CCCNC(=N)N)C(=O)N[C@@H]([C@@H](C)O)C(=O)N[C@@H](Cc2c[nH]cn2)C(=O)N[C@@H](CCCCN)C(=O)N[C@@H](Cc2c[nH]c3ccccc23)C(=O)N1)C(C)C)C(N)=O [compound 96] (H-DCLGFMRKCIPDNDKCCRPNLVCSRTHKWCKYVI-NH2; disulfide 2-17, 9-23, 16-30)
- IC50 (hNav1.7; IonWorks Quattro, use-dependent, […], read-out: IWQ Use Nav1.7): 0.28 µM
- IC50 (hNav1.3; use-dependent, […]): 0.28 µM
- IC50 (hNav1.5; use-dependent, […]): 10.8 µM

SMILES: CC[C@H](C)[C@@H]1NC(=O)[C@@H]2CSSC[C@@H]3NC(=O)[C@H](C(C)C)NC(=O)[C@H](CC(C)C)NC(=O)[C@H](CC(N)=O)NC(=O)[C@@H]4CCCN4C(=O)[C@H](CCCNC(=N)N)NC(=O)[C@H](CSSC[C@H](NC(=O)[C@@H](N)CC(=O)O)C(=O)N[C@@H](CC(C)C)C(=O)NCC(=O)N[C@@H](Cc4ccccc4)C(=O)N[C@@H](CCSC)C(=O)N[C@@H](CCCNC(=N)N)C(=O)N[C@@H](CCCCN)C(=O)N2)NC(=O)[C@H](CSSC[C@@H](C(=O)N[C@@H](CCCCN)C(=O)N[C@@H](CCCCN)C(=O)N[C@H](C(=O)N[C@@H](Cc2cccc4ccccc24)C(=O)N[C@@H](Cc2c[nH]c4ccccc24)C(N)=O)C(C)C)NC(=O)[C@H](Cc2c[nH]c4ccccc24)NC(=O)[C@H](CCCCN)NC(=O)[C@H](Cc2c[nH]cn2)NC(=O)[C@H]([C@@H](C)O)NC(=O)[C@H](CCCNC(=N)N)NC(=O)[C@H](CO)NC3=O)NC(=O)[C@H](CCCCN)NC(=O)[C@H](CC(=O)O)NC(=O)[C@H](CC(N)=O)NC(=O)[C@H](CC(=O)O)NC(=O)[C@@H]2CCCN2C1=O [compound 99] (H-DCLGFMRKCIPDNDKCCRPNLVCSRTHKWCKKV[1Nal]W-NH2; disulfide 2-17, 9-23, 16-30)
- IC50 (hNav1.7; IonWorks Quattro, use-dependent block, hNav1.7, read-out: IWQ Use Nav1.7): 0.11 µM
- IC50 (hNav1.3; use-dependent block, hNav1.3): 0.16 µM
- IC50 (hNav1.5; use-dependent block, hNav1.5): 9.14 µM

SMILES: CC[C@H](C)[C@@H]1NC(=O)[C@@H]2CSSC[C@@H]3NC(=O)[C@H](C(C)C)NC(=O)[C@H](CC(C)C)NC(=O)[C@H](CC(N)=O)NC(=O)[C@@H]4CCCN4C(=O)[C@H](CCCNC(=N)N)NC(=O)[C@H](CSSC[C@H](NC(=O)[C@@H](N)CC(=O)O)C(=O)N[C@@H](CC(C)C)C(=O)NCC(=O)N[C@@H](Cc4ccccc4)C(=O)N[C@@H](CCSC)C(=O)N[C@@H](CCCNC(=N)N)C(=O)N[C@@H](CCCCN)C(=O)N2)NC(=O)[C@H](CSSC[C@@H](C(=O)N[C@@H](CCCCN)C(=O)N[C@@H](Cc2ccc(O)cc2)C(=O)N[C@H](C(=O)N[C@@H](C)C(N)=O)C(C)C)NC(=O)[C@H](Cc2c[nH]c4ccccc24)NC(=O)[C@H](CCCCN)NC(=O)[C@H](Cc2cnc[nH]2)NC(=O)[C@H]([C@@H](C)O)NC(=O)[C@H](CCCNC(=N)N)NC(=O)[C@H](CO)NC3=O)NC(=O)[C@H](CCCCN)NC(=O)[C@H](CC(=O)O)NC(=O)[C@H](CC(N)=O)NC(=O)[C@H](CC(=O)O)NC(=O)[C@@H]2CCCN2C1=O [compound 101] (H-DCLGFMRKCIPDNDKCCRPNLVCSRTHKWCKYVA-NH2; disulfide 2-17, 9-23, 16-30)
- IC50 (hNav1.7): 7.19 µM
- IC50 (hNav1.3; use-dependent, […]): 4.76 µM
- IC50 (hNav1.5; use-dependent, […]): 9.33 µM

SMILES: CC[C@H](C)[C@@H]1NC(=O)[C@@H]2CSSC[C@@H]3NC(=O)[C@H](C(C)C)NC(=O)[C@H](CC(C)C)NC(=O)[C@H](CC(N)=O)NC(=O)[C@@H]4CCCN4C(=O)[C@H](CCCNC(=N)N)NC(=O)[C@H](CSSC[C@H](NC(=O)[C@@H](N)CC(=O)O)C(=O)N[C@@H](CC(C)C)C(=O)NCC(=O)N[C@@H](Cc4ccccc4)C(=O)N[C@@H](CCSC)C(=O)N[C@@H](CCCNC(=N)N)C(=O)N[C@@H](CCCCN)C(=O)N2)NC(=O)[C@H](CSSC[C@@H](C(=O)N[C@@H](CCCCN)C(=O)N[C@@H](Cc2ccc(O)cc2)C(=O)N[C@H](C(=O)N[C@@H](Cc2ccccc2)C(N)=O)C(C)C)NC(=O)[C@H](Cc2c[nH]c4ccccc24)NC(=O)[C@H](CCCCN)NC(=O)[C@H](Cc2cnc[nH]2)NC(=O)[C@H]([C@@H](C)O)NC(=O)[C@H](CCCNC(=N)N)NC(=O)[C@H](CO)NC3=O)NC(=O)[C@H](CCCCN)NC(=O)[C@H](CC(=O)O)NC(=O)[C@H](CCCNC(=N)N)NC(=O)[C@H](CC(=O)O)NC(=O)[C@@H]2CCCN2C1=O [compound 103] (H-DCLGFMRKCIPDRDKCCRPNLVCSRTHKWCKYVF-NH2; disulfide 2-17, 9-23, 16-30)
- IC50 (hNav1.7; [1]): 0.16 µM
- IC50 (hNav1.3; Use): 0.22 µM
- IC50 (hNav1.5; Use): 16 µM
